In PMC10081574, “Evaluation of Antiviral Activity of Gemcitabine Derivatives against Influenza Virus and Severe Acute Respiratory Syndrome Coronavirus 2” (ACS Infectious Diseases, 2023):
Like-named read-outs stand apart in the source and are kept apart here.

Assays:
[1] = system: influenza A and B viruses; assay: CPE reduction antiviral assay, values summarised over influenza strains PR8, HK and Lee; format: cell-based, influenza virus; settings: for SI90 against influenza viruses / SI50 against influenza viruses: over PR8, HK and Lee; for EC50: read-out: EC50 against influenza viruses; for subtoxic concentration at which over 90% viability of infected cells was recorded / recovery of viability of virus-infected cells with 90% cutoff: day 3; for SI50 against influenza viruses: CC50/EC50
MDCK cells = settings: for CC10: dog, 3 days
in vitro = settings: dog
B/Lee/40 = assay: CPE reduction antiviral assay in Lee-infected MDCK cells (MTT); format: cell-based, influenza B virus; settings: for EC50 / EC90: Influenza B virus, 72 h; for EC50: viability of infected cells to 50%; for SI50 Lee: ratio of CC50 to EC50; for EC90: read-out: EC90 Lee; for SI90 Lee: ratio of CC10 to EC90
[2] = system: A/Puerto Rico/8/34 (H1N1); settings: for SI90 PR8: ratio of CC10 to EC90; for SI50 PR8: ratio of CC50 to EC50
A/Hong Kong/8/68 (H3N2) [3] = settings: for SI90 HK: ratio of CC10 to EC90; for SI50 HK: ratio of CC50 to EC50
[4] = system: A/Puerto Rico/8/34 (H1N1); assay: microbe, parasite or virus in culture; settings: Influenza A virus, 72 h; for EC50 / EC90: H1N1 / PR8, MDCK; for EC50: read-out: EC50 PR8; for EC90: read-out: EC90 PR8; for viability at 10 µM: H1N1|PR8, MDCK, read-out: viability of PR8-infected cells in library screening
A/Hong Kong/8/68 (H3N2) [5] = assay: microbe, parasite or virus in culture; settings: Influenza A virus, H3N2, MDCK, 72 h; for EC50: read-out: EC50 HK; for EC90: read-out: EC90 HK; for viability at 10 µM: read-out: viability of HK-infected cells in library screening
[6] = MDCK, MDCK, MOI 0.001, day 3, read-out: EC50 Lee
[7] = MDCK, read-out: EC50 Lee, MDCK, MOI 0.001, day 3
[8] = Influenza A virus, PR8, MDCK, span over PR8, HK and Lee, MDCK, read-out: EC90 against influenza viruses
[9] = Influenza A virus, span over PR8, HK and Lee, MDCK
[10] = MDCK, MOI 0.001, day 3, viability of infected cells to 90%

SMILES | CC10 (MDCK cells) | CC50 at 3 days (in vitro) | EC50 (B/Lee/40; [6]) | SI50 Lee (B/Lee/40) | SI90 against influenza viruses ([1]; CC10/EC90) | SI90 PR8 [2] | SI50 PR8 [2] | SI90 HK (A/Hong Kong/8/68 (H3N2) [3]) | SI50 HK (A/Hong Kong/8/68 (H3N2) [3]) | EC50 [4] | EC90 [4] | EC50 (A/Hong Kong/8/68 (H3N2) [5]) | EC90 (A/Hong Kong/8/68 (H3N2) [5]) | EC90 [1, 8] | EC90 (B/Lee/40; [10]) | SI90 Lee (B/Lee/40) | also measured
Cc1nc(C(F)(F)F)ccc1C(=O)Nc1ccn([C@@H]2O[C@H](CO)[C@@H](O)C2(F)F)c(=O)n1 [Compound 3g] | 8.7 ± 8.2 µM | > 300 µM | – | – | – | – | – | – | – | – | – | – | – | – | – | – | antiviral activity against influenza viruses (in words) [1]: completely lost antiviral activity
Cc1cccnc1C(=O)Nc1ccn([C@@H]2O[C@H](CO)[C@@H](O)C2(F)F)c(=O)n1 [Compound 2c] | >300.0 µM | > 300 µM | 26.2 ± 2 µM | > 11.5 | > 1.4 | > 2.6 | > 9.2 | > 7.3 | > 11.2 | 32.8 ± 5.8 µM | 114 ± 24.7 µM | 26.8 µM | 41.2 ± 0.5 µM | – | – | – | –
O=C(Nc1ccn([C@@H]2O[C@H](CO)[C@@H](O)C2(F)F)c(=O)n1)c1ccccc1 [Compound 1] | – | > 300 µM | – | > 13.3 | > 1.9 | > 3.9 | > 6.9 | > 3.1 | > 5.5 | 43.4 ± 8.6 µM | 76.2 ± 30.9 µM | 54.2 ± 5.1 µM | 98.1 ± 0.2 µM | 76.2 to 98.1 µM | – | – | EC50 (B/Lee/40; [7]): 22.5 ± 0.4 µM; EC90 (B/Lee/40; MDCK): 78.7 ± 2.7 µM; EC50 [1, 9]: 22.5 to 54.2 µM; subtoxic concentration at which over 90% viability of infected cells was recorded ([1]; MDCK): 100 µM; SI50 against influenza viruses [1]: > 5.5; EC50 ([2]; read-out: EC50 PR8): 43.5 ± 8.6 µM; viability at 10 µM [4]: 10 to 20%; viability at 10 µM (A/Hong Kong/8/68 (H3N2) [5]): 10 to 20%
O=C(Nc1ccn([C@@H]2O[C@H](CO)[C@@H](O)C2(F)F)c(=O)n1)c1ccc(F)nc1 [Compound 3c] | – | > 300 µM | 1.8 ± 0.3 µM | > 170.6 | – | 20.0 | > 90.6 | 51.2 | > 116.6 | 3.3 ± 0.1 µM | 12.5 ± 3.6 µM | 2.6 ± 0.4 µM | 4.9 ± 0.4 µM | 4.9 to 22.6 µM | 22.6 ± 2 µM | 11.1 | recovery of viability of virus-infected cells with 90% cutoff ([1]; MDCK): active
COc1ccc(C(=O)Nc2ccn([C@@H]3O[C@H](CO)[C@@H](O)C3(F)F)c(=O)n2)cn1 [Compound 3e] | 129.7 ± 74.0 µM | > 300 µM | 18.5 ± 2 µM | > 16.2 | – | – | > 12.8 | – | > 12.5 | 23.5 ± 4.1 µM | – | 24 ± 2 µM | – | – | – | – | –
O=C(Nc1ccn([C@@H]2O[C@H](CO)[C@@H](O)C2(F)F)c(=O)n1)c1ccc(Cl)nc1 [Compound 3d] | 91.1 ± 53.8 µM | > 300 µM | 10.6 ± 1.7 µM | > 28.4 | – | – | > 23.8 | – | > 31.5 | 12.6 ± 2.5 µM | – | 9.5 ± 0.3 µM | – | – | – | – | –
CCC(CC)O[C@@H]1C=C(C(=O)O)C[C@H](N)[C@H]1NC(C)=O [Oseltamivir carboxylate, reference compound] | >300.0 µM | > 300 µM | 10 ± 0.9 µM | > 30.0 | – | > 24.0 | > 375.0 | > 600.0 | > 6,000 | 0.8 ± 0.4 µM | 12.5 ± 8.1 µM | < 0.05 µM | 0.5 ± 0.2 µM | – | 60.4 ± 0.1 µM | > 5.0 | –
Cc1ccc(C(=O)Nc2ccn([C@@H]3O[C@H](CO)[C@@H](O)C3(F)F)c(=O)n2)nc1 [Compound 2b] | 209.2 ± 61.7 µM | > 300 µM | 8.1 ± 0.7 µM | > 37.3 | > 1.4 | 8.3 | > 22.4 | 1.8 | > 5.8 | 13.4 ± 0.9 µM | 25.3 ± 1.3 µM | 51.8 ± 42.6 µM | 117 ± 18.5 µM | – | 43.8 ± 24.4 µM | 4.8 | –
NC(=O)c1nc(F)c[nH]c1=O [Favipiravir, reference compound] | >300.0 µM | > 300 µM | 1.5 ± 0.2 µM | > 200.0 | – | > 35.3 | > 166.7 | > 43.5 | > 100.0 | 1.8 ± 0.1 µM | 8.5 ± 0.2 µM | 3 ± 0.4 µM | 6.9 ± 1.8 µM | – | 16.3 ± 4.2 µM | > 18.4 | –
O=C(Nc1ccn([C@@H]2O[C@H](CO)[C@@H](O)C2(F)F)c(=O)n1)c1ccccn1 [Compound 2a] | – | > 300 µM | 0.6 µM | > 495.7 | 4.4–7.1 | 5.5 | > 342.5 | 7.1 | > 462.2 | 0.9 ± 0.2 µM | 1.8 ± 0.5 µM | 0.6 µM | 1.4 ± 0.1 µM | 1.4 to 2.2 µM | 2.2 ± 0.8 µM | 4.4 | EC50 [1, 9]: 0.6 to 0.9 µM; subtoxic concentration at which over 90% viability of infected cells was recorded ([1]; MDCK): 3.7 µM; SI50 against influenza viruses [1]: > 342.5; EC90 ([1]; span over PR8, HK and Lee, MDCK, read-out: EC90 against influenza viruses): 1.4 to 16.9 µM; viability at 10 µM [4]: > 50%; viability at 10 µM (A/Hong Kong/8/68 (H3N2) [5]): > 50%
O=C(Nc1ccn([C@@H]2O[C@H](CO)[C@@H](O)C2(F)F)c(=O)n1)c1cccnc1 [Compound 3a] | – | > 300 µM | 3.1 ± 0.5 µM | > 95.7 | – | 2.7 | > 52.1 | 4.2 | > 48.4 | 5.8 ± 0.9 µM | 16.9 ± 7.2 µM | 6.2 ± 1.1 µM | 10.6 ± 0.8 µM | 1.4 to 16.9 µM | – | – | activity against influenza B virus by EC90/SI90 criteria (B/Lee/40; MDCK, 90% viability criteria): not against influenza B virus; EC90 ([1]; Influenza A virus, PR8, PR8 and HK only, read-out: EC90 against influenza A viruses): 10.6 to 16.9 µM; EC50 [1, 9]: 3.1 to 6.2 µM; SI90 against influenza A viruses ([1]; PR8 and HK only, CC10/EC90): 2.7–4.2; concentration of maximal antiviral efficacy ([1]; dose-response, MDCK): ~33 µM; SI50 against influenza viruses [1]: > 48.4; reduction of cytotoxicity relative to gemcitabine (MDCK cells): ninefold; viability at 10 µM [4]: > 50%; viability at 10 µM (A/Hong Kong/8/68 (H3N2) [5]): > 50%
O=C(Nc1ccn([C@@H]2O[C@H](CO)[C@@H](O)C2(F)F)c(=O)n1)c1ccc([N+](=O)[O-])cn1 [Compound 2i] | 17.9 ± 6.7 µM | > 300 µM | – | > 464.8 | > 1.4 | 8.1 | – | 15.7 | > 518.5 | 1.1 µM | 2.2 ± 0.2 µM | 0.6 ± 0.1 µM | 1.1 µM | – | – | 11.0 | EC50 (B/Lee/40; [7]): 0.7 µM; EC90 (B/Lee/40; MDCK): 1.6 ± 0.1 µM
O=C(Nc1ccn([C@@H]2O[C@H](CO)[C@@H](O)C2(F)F)c(=O)n1)c1ccc(C(F)(F)F)nc1 [Compound 3f] | 7.9 ± 8.4 µM | > 300 µM | 4.1 ± 0.1 µM | > 73.9 | – | – | > 73.6 | – | > 84.7 | 4.1 ± 0.3 µM | – | 3.5 ± 0.6 µM | – | – | – | – | –
COc1ccc(C(=O)Nc2ccn([C@@H]3O[C@H](CO)[C@@H](O)C3(F)F)c(=O)n2)nc1 [Compound 2g] | >300.0 µM | > 300 µM | 13.3 ± 2.7 µM | > 22.6 | > 1.4 | > 4.4 | > 10.5 | > 9.3 | > 16.1 | 28.5 ± 4.2 µM | 68.8 ± 22.7 µM | 18.6 ± 0.1 µM | 32.3 ± 0.7 µM | – | 98.1 ± 16.7 µM | > 3.1 | –
O=C(Nc1ccn([C@@H]2O[C@H](CO)[C@@H](O)C2(F)F)c(=O)n1)c1ccc(F)cn1 [Compound 2f] | – | > 300 µM | 3.2 ± 2.3 µM | > 94.8 | > 8.7 | > 11.1 | > 41.6 | > 28.0 | > 49.9 | 7.2 ± 0.4 µM | 26.9 ± 16.3 µM | 6 ± 0.1 µM | 10.7 ± 0.2 µM | 10.7 to 34.3 µM | 25.7 ± 6.4 µM | > 11.7 | –
Cc1ccc(C(=O)Nc2ccn([C@@H]3O[C@H](CO)[C@@H](O)C3(F)F)c(=O)n2)cn1 [Compound 3b] | – | > 300 µM | 0.7 µM | > 426.6 | – | 5.7 | > 325.8 | 7.3 | > 437.2 | 0.9 µM | 1.8 ± 0.1 µM | 0.7 µM | 1.4 ± 0.2 µM | 1.4 to 1.8 µM | 1.7 µM | 6.0 | recovery of viability of virus-infected cells with 90% cutoff ([1]; MDCK): active
